The values below come from patent US4617269A, “Process for the preparation of fructosyl disaccharides” (priority 1983, dated 1986).

Broadly, the Km is the substrate concentration at which the rate is half of its maximum.

Assay [1] can be described thus: Sweetness relative to sucrose.
For assay [2], the system named is Dedonder's levan sucrase from B.subtilis BS5 (a clone from B.subtilis var. nigra). The note with it: cited from earlier work.

Each structure is given as a SMILES string. Read-outs that look alike come from different tables or passages of the source.

With `O[C@@H]1[C@@H](O)[C@@H](O[C@]2(CCl)O[C@H](CCl)[C@@H](O)[C@@H]2O)OC[C@@H]1Cl` [Example 8], the “sweetness, times as sweet as sucrose” value in assay [1] (in a 2% solution) was determined as 25 times as sweet as sucrose. With `OC[C@H]1O[C@@](CO)(O[C@H]2O[C@H](CO)[C@@H](O)[C@H](O)[C@H]2O)[C@@H](O)[C@@H]1O` [sucrose, β-D-fructofuranosyl α-D-glucopyranoside], the Km was ~20 mM in assay [2] (Dedonder (loc.cit.) BS5 strain enzyme, read-out: Km (sucrose), quoted) and 20 mM in assay [2] (reported for Dedonder's levan sucrase, read-out: Km for sucrose). Take `OC[C@H]1O[C@H](O[C@]2(CO)O[C@H](CO)[C@@H](O)[C@@H]2O)[C@H](O)[C@@H](O)[C@H]1O` [Galactosucrose, β-D-fructofuranosyl (2→1)-D-galactopyranoside]: in assay [1] (only a trace of sweetness), the sweetness is 10-15 % of sucrose. On to `C[C@H]1O[C@H](O[C@]2(CCl)O[C@H](CCl)[C@@H](O)[C@@H]2O)[C@H](O)[C@@H](O)[C@H]1Cl` [4,1',6'-trichloro-4,6,1',6'-tetradeoxygalactosucrose], for which the “sweetness, times as sweet as sucrose” value in assay [1] (8% solution) is on record as 400 times as sweet as sucrose.
